Experimental data: patent publication US20220304957A1, “ANTI-CANCER COMPOSITIONS AND METHODS OF USE” (Board of Supervisors of Louisiana State University and …, priority 2019, published 2022)
“Also recorded” adds a separate entry of the source. Like-named read-outs stand apart in the source and are kept apart here.

Columns and labels:
[1] = in vivo; cited from earlier work
[2] = Stability in human blood (HPLC); type: in vitro ADME; settings: 50 μM added, 48-hour incubation
Experimental: Aliquots of 50 μM PP1 and FF in DMSO were added to 500 μl to heparinized human blood to a final concentration of 50 μM. Following incubation at 37° C. for the indicated time points, the samples were frozen at −80° C., and later prepared for HPLC-based detection of the compounds. Please note that FF is converted to FA in the presence of human blood. […] Data represent average values with standard deviation (n=3). panel B: Water solubility. FF and PP1, were added to water to a final concentration of 50 mM and sonicated in an ultrasonic bath (Branson 1510 Digital Heated Ultrasonic bath) for one hour at room temperature. The samples were then centrifuged for 10 minutes at 16000×g, and the supernatant filtered through 0.45 μm syringe filter. […] The PPAR transcriptional activity was determined in HepG2 cells by the JsTkpGL3 reporter plasmid, which contains a firefly luciferase gene driven by the PPRE, which consists of three copies of the J site from the apo-AII gene promoter. […] The luciferase activity was detected with Dual-Luciferase reporter assay system (Promega, Madison, Wis.), and the resulting luminescence measured with Synergy 2 microplate reader (BioTek, Winooski, Vt.). […]
In this experiment, 50 μM of PP1 and 50 μM of FF were incubated with human blood at […], at indicated time points. […] In contrast, nearly 25 μM of PP1 was still detected at the 48-hour time point (FIG. 4A; left panel).

[3] = tested on: LN-229 human glioblastoma cells; settings: for % cell death: 50 μM (single dose); for cell death: 25 and 50 μM, 72- and 96-hour time points
[4] = tested on: LN229 human glioblastoma cell line; assay: Cell viability (MTT assay), LN229; type: cell-based
[5] = tested on: PPAR responsive elements (PPRE); assay: PPAR luciferase assay (PPRE reporter) in HepG2 cells; type: cell-based; settings: 25 μM, 24 hrs
Experimental: Aliquots of 50 μM PP1 and FF in DMSO were added to 500 μl to heparinized human blood to a final concentration of 50 μM. Following incubation at 37° C. for the indicated time points, the samples were frozen at −80° C., and later prepared for HPLC-based detection of the compounds. Please note that FF is converted to FA in the presence of human blood. […] Data represent average values with standard deviation (n=3). panel B: Water solubility. FF and PP1, were added to water to a final concentration of 50 mM and sonicated in an ultrasonic bath (Branson 1510 Digital Heated Ultrasonic bath) for one hour at room temperature. The samples were then centrifuged for 10 minutes at 16000×g, and the supernatant filtered through 0.45 μm syringe filter. Water solubilized PP1 and FF were subsequently processed for HPLC analysis (see Methods). Data represent average values with standard deviation (n=3). panel C: Effects of PP compounds on PPAR responsive elements (PPRE). The PPAR transcriptional activity was determined in HepG2 cells by the JsTkpGL3 reporter plasmid, which contains a firefly luciferase gene driven by the PPRE, which consists of three copies of the J site from the apo-AII gene promoter. To normalize for efficiency of transfection the cells were additionally transfected with the pSV40-GLuc (New England Biolabs, Ipswich, Mass.) control plasmid. […] The luciferase activity was detected with Dual-Luciferase reporter assay system (Promega, Madison, Wis.), and the resulting luminescence measured with Synergy 2 microplate reader (BioTek, Winooski, Vt.). Data represent average values with standard deviation (n=6).
PPAR Luciferase Assay—The PPAR transcriptional activity was determined by utilizing the JsTkpGL3 reporter plasmid, which contains a firefly luciferase gene driven by the PPAR responsive element (PPRE), which consists of three copies of the J site from the apo-AII gene promoter. Together with JsTkpGL3 plasmid HepG2 cells were transfected with pSV40-GLuc (New England Biolabs, Ipswich, Mass.) control plasmid expressing Gaussia luciferase under the control of the constitutive SV40 early promoter to normalize for efficiency of transfection. […] The luciferase activity was detected with Dual-Luciferase reporter assay system (Promega, Madison, Wis.), and the resulting luminescence measured with Synergy 2 microplate reader (BioTek, Winooski, Vt.).

[6] = Stability of stock solution in DMSO; type: physicochemical
LN-229 cells = assay: Cell morphology, peroxisome accumulation in LN-229; type: cell-based, human; settings: DMEM 1 g/L glucose, 10% FBS
Source text: Red arrows indicated accumulation of peroxisomes (black dot-like structures) around the nucleus in PP3-treated cells but not in control (DMSO). (LN229 cells, DMEM 1 g/L glucose 10% FBS P/S).

Which “crossing of the blood brain tumor barrier (BBTB)” value [1] does the source give for `CC(C)(Oc1ccc(C(=O)c2ccc(Cl)cc2)cc1)C(=O)O` [FA, fenofibric acid] here?
The value was “do not cross”.

Which results are given for `CC(C)OC(=O)C(C)(C)Oc1ccc(C(=O)c2ccc(Cl)cc2)cc1` [FF, fenofibrate, reference compound]?
conversion to FA in human blood [2]: almost all FF was converted to FA; % cell death ([3]; 48 hours): 24+/−4%; % cell death ([3]; 72 hours): 90+/−1%; % cell death ([3]; 96 hrs): 99+/−1.2%

With `CC(C)(C)OC(=O)NCCCCNC(=O)C(C)(C)Oc1ccc(C(=O)c2ccc(Cl)cc2)cc1` [H28] as the compound, how does the “CV = Cell viability (% of control)” value ([4]; 1 μM, MTT) read?
Its value is 92.75±3.59 % of control.

What about the “CV = Cell viability (% of control)” value ([4]; 5 μM, MTT) of the same compound?
Its value is 65.90±2.82 % of control.

What about the “CV = Cell viability (% of control)” value ([4]; 10 μM, MTT) of the same compound?
Its value is 38.31±3.50 % of control.

Which results are given for `CN1CCN(C(=O)C(C)(C)Oc2ccc(C(=O)c3ccc(Cl)cc3)cc2)CC1.Cl` [H35]?
CV = Cell viability (% of control) ([4]; 1 μM, MTT): 93.64±2.08 % of control; CV = Cell viability (% of control) ([4]; 5 μM, MTT): 79.34±1.70 % of control; CV = Cell viability (% of control) ([4]; 10 μM, MTT): 56.26±0.59 % of control

For `CC(C)(Oc1ccc(C(=O)c2ccc(Cl)cc2)cc1)C(=O)N1CCC(N2CCOCC2)CC1` [H37, 2-[4-(4-chlorobenzoyl)phenoxy]-2-methyl-1-[4-(morpholin-4-yl)piperidin-1-yl]propan-1-one], which “CV = Cell viability (% of control)” value ([4]; 1 μM, MTT) is on record?
The value was 109.20±5.73 % of control.

What about the “CV = Cell viability (% of control)” value ([4]; 5 μM, MTT) of the same compound?
The value was 75.02±1.42 % of control.

And the “CV = Cell viability (% of control)” value ([4]; 10 μM, MTT)?
The value was 47.02±1.23 % of control.

Which “CV = Cell viability (% of control)” value ([4]; 1 μM, MTT) does the source give for `CC(C)(Oc1ccc(C(=O)c2ccc(Cl)cc2)cc1)C(=O)N1CCC([NH+]2CCOCC2)CC1.[Cl-]` [H38, 4-(1-{2-[4-(4-chlorobenzoyl)phenoxy]-2-methylpropanoyl}piperidin-4-yl)morpholin-4-iumchloride] here?
The value was 97.97±11.41 % of control.

What about the “CV = Cell viability (% of control)” value ([4]; 5 μM, MTT) of the same compound?
Its value is 74.89±1.79 % of control.

And the “CV = Cell viability (% of control)” value ([4]; 10 μM, MTT)?
The value was 52.00±1.86 % of control.

Which “CV = Cell viability (% of control)” value ([4]; 1 μM, MTT) does the source give for `CC(C)(Oc1ccc(C(=O)c2ccc(Cl)cc2)cc1)C(=O)N(CCO)CCO` [H46] here?
Its value is 103.00±2.98 % of control.

What about the “CV = Cell viability (% of control)” value ([4]; 5 μM, MTT) of the same compound?
Its value is 86.15±8.50 % of control.

What about the “CV = Cell viability (% of control)” value ([4]; 10 μM, MTT) of the same compound?
Its value is 51.97±10.27 % of control.

Which “anti-glioblastoma activity / relative potency” value ([4]; 25 μM, 72 hrs, MTT) does the source give for `CC(C)OC(=O)C(C)(C)Oc1ccc(C(=O)c2ccccc2)cc1` [HR6] here?
The value was “virtually inactive”.

With `CC(C)OC(=O)C(C)(C)Oc1cccc(C(=O)c2ccccc2)c1` [HR7] as the compound, how does the “anti-glioblastoma activity / relative potency” value ([4]; 25 μM, 72 hrs, MTT) read?
The value was “virtually inactive”.

With `CC(C)OC(=O)C(C)(C)Oc1ccc(C(=O)c2ccc(F)cc2)cc1` [HR8] as the compound, how does the “anti-glioblastoma activity / relative potency” value ([4]; 25 μM, 72 hrs, MTT) read?
The value was “virtually the same activity (CV) as FF”.

Which “anti-glioblastoma activity / relative potency” value ([4]; 25 μM, 72 hrs, MTT) does the source give for `CN(CCO)C(=O)C(C)(C)Oc1ccc(C(=O)c2ccc(F)cc2)cc1` [HR9] here?
The value was “lower potency than PP1”.

For `CC(C)(Oc1ccc(C(=O)c2ccc(F)cc2)cc1)C(=O)N1CCCCC1` [HR11], which “anti-glioblastoma activity / relative potency” value ([4]; 25 μM, 72 hrs, MTT) is on record?
The value was “slightly higher biological activity”.

Which cell death ([4]; 25 μM, 72 hrs) does the source give for `CC(Oc1ccc(C(=O)c2ccc(Cl)cc2)cc1)C(=O)N1CCC(O)CC1` (stereo not drawn) [HR21] here?
Its cell death is “about 60%”.

For `CC(Oc1ccc(C(=O)c2ccc(Cl)cc2)cc1)C(=O)N1CCCCC1` (stereo not drawn) [HR22], which cell death ([4]; 25 μM, 72 hrs) is on record?
The cell death was “about 60%”.

Which “anti-glioblastoma activity / relative potency” value ([4]; 25 μM, 72 hrs, MTT) does the source give for `CC(C)(Oc1ccc(C(=O)c2ccc(Cl)cc2)cc1)C(=O)NCCCCN` [HR31] here?
The value was “CV value similar to that of 25 μM FF”.

With `CN1CCN(C(=O)C(C)(C)Oc2ccc(C(=O)c3ccc(Cl)cc3)cc2)CC1.Cl` [HR35, 4-{2-[4-(4-chlorobenzoyl)phenoxy]-2-methylpropanoyl}6-8,13-20,24-26,28,34,38-1-methylpiperazin-1-ium chloride] as the compound, how does the “anti-glioblastoma activity / relative potency” value ([4]; 25 μM, 72 hrs, MTT) read?
Its value is “more potent than its free base HR34”.

With `CC(C)(Oc1ccc(C(=O)c2ccc(Cl)cc2)cc1)C(=O)N1CC[N+](C)(C)CC1` [HR36, 4-{2-[4-(4-chlorobenzoyl)phenoxy]-2-methylpropanoyl}-1,1-dimethylpiperazin-1-ium iodide] as the compound, how does the viability at 25 µM ([4]; Homo sapiens, LN-229, 25 μM, 72 hrs, MTT, read-out: CV = Cell viability (% of control)) read?
The viability at 25 µM was 98%.

With `CC(C)(Oc1ccc(C(=O)c2ccc(Cl)cc2)cc1)C(=O)N1CCC(N2CCOCC2)CC1` [HR37, 2-[4-(4-chlorobenzoyl)phenoxy]-2-methyl-1-[4-(morpholin-4-yl)piperidin-1-yl]propan-1-one] as the compound, how does the “anti-glioblastoma activity / relative potency” value ([4]; 25 μM, 72 hrs, MTT) read?
The value was “more potent than its hydrochloric salt (HR38)”.

Which “anti-glioblastoma activity / relative potency” value ([4]; 25 μM, 72 hrs, MTT) does the source give for `CC(C)(Oc1ccc(C(=O)c2ccc(Cl)cc2)cc1)C(=O)NCCO` [HR39] here?
Its value is “significantly less potent than PP1”.

Which “anti-glioblastoma activity / relative potency” value ([4]; 25 μM, 72 hrs, MTT) does the source give for `CC(C)(Oc1ccc(C(=O)c2ccc(Cl)cc2)cc1)C(=O)N1CCC(O)CC1` [HR41] here?
Its value is “less potent than PP1”.

For `CC(C)(Oc1ccc(C(=O)c2ccc(Cl)cc2)cc1)C(=O)NCC(O)CO` (stereo not drawn) [HR42], which “anti-glioblastoma activity / relative potency” value ([4]; 25 μM, 72 hrs, MTT) is on record?
Its value is “almost identical”.

For `CC(C)(Oc1ccc(C(=O)c2ccc(Cl)cc2)cc1)C(=O)NC(CO)CO` [HR43], which “anti-glioblastoma activity / relative potency” value ([4]; 25 μM, 72 hrs, MTT) is on record?
Its value is “almost identical”.

With `CN(CC(O)CO)C(=O)C(C)(C)Oc1ccc(C(=O)c2ccc(Cl)cc2)cc1` (stereo not drawn) [HR44] as the compound, how does the “anti-glioblastoma activity / relative potency” value ([4]; 25 μM, 72 hrs, MTT) read?
Its value is “more potent than the secondary amide HR39”.

For `CC(C)(Oc1ccc(C(=O)c2ccc(Cl)cc2)cc1)C(=O)NC(CO)(CO)CO` [HR45], which “anti-glioblastoma activity / relative potency” value ([4]; 25 μM, 72 hrs, MTT) is on record?
The value was “slightly decreases the potency”.

Which “anti-glioblastoma activity / relative potency” value ([4]; 25 μM, 72 hrs, MTT) does the source give for `CC(C)(Oc1ccc(C(=O)c2ccc(Cl)cc2)cc1)C(=O)N(CCO)CCO` [HR46] here?
Its value is “almost as potent as PP1”.

What does the source list for `CC(C)(Oc1ccc(C(=O)c2ccc(Cl)cc2)cc1)C(=O)Nc1ccccc1O` [HR49, 2-(4-(4-chlorobenzoyl)phenoxy)-N-(2-hydroxyphenyl)-2-methylpropanamide]?
anti-glioblastoma activity / relative potency ([4]; 25 μM, 72 hrs, MTT): more potent than HR48; IC50 ([4]; Homo sapiens, LN-229, LN229, read-out: IC50 concentration): < 10 µM

Which “effect on PPAR responsive elements (PPRE)” value [5] does the source give for `CN1CCN(C(=O)C(C)(C)Oc2ccc(C(=O)c3ccc(Cl)cc3)cc2)CC1` [PP2, 2-[4-(4-chlorobenzoyl)phenoxy]-2-methyl-1-(4-methylpiperazin-1-yl)propan-1-one] here?
Its value is “attenuate”.

And the “cell death” value [3]?
The value was “extensive cell death”.

Which results are given for `CN(CC(O)C(O)C(O)C(O)CO)C(=O)C(C)(C)Oc1ccc(C(=O)c2ccc(Cl)cc2)cc1` [PP3, 2-[4-(4-chlorobenzoyl)phenoxy]-N,2-dimethyl-N-[(2S,3R,4R,5R)-2,3,4,5,6-pentahydroxyhexyl]propenamide]?
effect on PPAR responsive elements (PPRE) [5]: does not repress PPAR responsive elements; also recorded: does not share this PPAR-inhibitory activity; stability dissolved in DMSO [6]: quite unstable; accumulation of peroxisomes (LN-229 cells): extensive accumulation of peroxisomes; cytostatic effect ([3]; 10 μM): cytostatic activity

Which results are given for `CC(C)(Oc1ccc(C(=O)c2ccc(Cl)cc2)cc1)C(=O)N1CCC(N2CCOCC2)CC1` [PP4, 2-[4-(4-chlorobenzoyl)phenoxy]-2-methyl-1-[4-(morpholin-4-yl)piperidin-1-yl]propan-1-one]?
effect on PPAR responsive elements (PPRE) [5]: attenuate; cell death [3]: extensive cell death
